Measured values taken from article PMC12774438, “CBL ubiquitin ligase targets translation as a degrader E3” (Chemical Science, 2025).
Blank lines part the entries; values can stand above or below the molecule they belong to. Where a SMILES comes first, the peptide text is derived from it.

Experiments:
His-eIF4E [1] = target: T1, His-eIF4E (Homo sapiens, UniProt P06730); experiment: SPR binary binding of peptides to immobilised His-eIF4E; conditions: 25°C, ligand His-eIF4E amine-coupled to CM5 chip, steady-state affinity, analyte 0.005859-0.75 µM, n = 3, mean ± SD
T1 construct: made in house; host or cells: E. coli BL21(DE3) Gold
Description: Supplementary Figure 4. Related to Table 2
A. Sensorgrams (left) and binding curves (right) showing a three-fold dilution series […]
over immobilised eIF4E. […]
(1 picture or pasted object on this page, not shown here) […]
Data were analysed by […] affinity analysis using Cytiva Biacore TM Insight Evaluation Software. Sensorgrams for figures were made using GraphPad Prism 9.5.1.
Studying the interactions between eIF4E and eIFTerminator1-4
His-eIF4E protein was immobilised on Cytiva’s sensor chip CM5 using amine-coupling. The chip was docked and primed in running buffer (50 mM HEPES pH 7.5, 100 mM NaCl, 1 mM TCEP, 0.05% Tween20). Cytiva’s amine-coupling kit was used to capture the ligand. Briefly, 0.4 M EDC and 0.1 M NHS from the kit were mixed 50:50 and injected to activate the chip surface for 300 s at 10 μL/min. His-eIF4E was prepared for amine coupling as described previously (15). After achieving a capture level of approximately 120 RU, the remaining binding sites were blocked with ethanolamine hydrochloride-NaOH (pH 8.5) from the kit for 420 s at a flow rate of 10 μL/min. Reference surfaces were prepared in duplicates […]
Multi-cycle experiments were performed to gain steady-state binding affinity of eIFTerminator1-4 to His-eIF4E. At a flow rate of 30 μL/min, 20 startups with a 30 s contact time and a 30 s dissociation time were done prior to sample injection. An 8-point, 1 in 2 dilution series of eIFTerminator1-4 or eIF4G1-D5S peptide was injected (0.005859 – 0.75 μM) with a 100 s contact time and a 250 s dissociation time at a flow rate of 30 μL/min. The peptides were dissolved in running buffer and filtered using Coster Spin-X 0.22 μM centrifuge tube filters as described above. […]

His-eIF4E [2] = target: T2, His-eIF4E (UniProt P06730 1-217); experiment: SPR; His-eIF4E immobilised; dilution series of eIFTerminator with a fixed, saturating concentration of CBL (1 µM) as analyte; steady-state affinities, ternary complex; conditions: both partners purified
T2 construct: eukaryotic translation initiation factor 4E (eIF4E); Immobilised on the SPR chip; also called eukaryotic translation initiation factor 4E; source: recombinant
T2 sequence (P06730 whole entry): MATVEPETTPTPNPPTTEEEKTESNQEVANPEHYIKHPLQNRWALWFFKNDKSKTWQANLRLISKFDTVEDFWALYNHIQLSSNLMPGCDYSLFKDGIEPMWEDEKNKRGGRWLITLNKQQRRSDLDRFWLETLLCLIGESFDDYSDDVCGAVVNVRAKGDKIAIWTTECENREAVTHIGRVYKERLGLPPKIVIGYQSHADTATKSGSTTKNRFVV

T1 sequence (P06730 whole entry): as above

- Kd (His-eIF4E [1]): 38.9 ± 6.5 nM
Molecule: CC(C)C[C@H](NC(=O)[C@H](CC(C)C)NC(=O)[C@H](Cc1ccccc1)NC(=O)[C@H](CCC(=O)O)NC(=O)[C@H](CCCNC(=N)N)NC(=O)[C@H](CO)NC(=O)[C@H](Cc1ccc(O)cc1)NC(=O)[C@H](CCCNC(=N)N)NC(=O)[C@H](CCCCN)NC(=O)[C@@H](N)CCCCN)C(=O)NCC(=O)N[C@@H](Cc1ccccc1)C(N)=O [eIF4G1-D5S] (H-KKRYSREFLLGF-NH2)

- Kd (His-eIF4E [1]): 54 ± 9 nM
Molecule: CC[C@H](C)[C@H](NC(=O)[C@H](Cc1c[nH]c2ccccc12)NC(=O)[C@H](CO)NC(=O)[C@H](CC(=O)O)NC(=O)[C@H](CCSC)NC(=O)[C@H](CCC(=O)O)NC(=O)[C@H](CCC(=O)O)NC(=O)[C@@H](NC(=O)[C@@H](NC(=O)[C@H](CCSC)NC(=O)CNC(=O)[C@H](CO)NC(=O)CNC(=O)CNC(=O)[C@H](Cc1ccccc1)NC(=O)CNC(=O)[C@H](CC(C)C)NC(=O)[C@H](CC(C)C)NC(=O)[C@H](Cc1ccccc1)NC(=O)[C@H](CCC(=O)O)NC(=O)[C@H](CCCNC(=N)N)NC(=O)[C@H](CO)NC(=O)[C@H](Cc1ccc(O)cc1)NC(=O)[C@H](CCCNC(=N)N)NC(=O)[C@H](CCCCN)NC(=O)[C@@H](N)CCCCN)[C@@H](C)O)C(C)C)C(=O)N[C@@H](CCCCN)C(=O)N[C@@H](CO)C(=O)N[C@@H](Cc1c[nH]c2ccccc12)C(=O)N[C@@H](CC(=O)O)C(=O)N[C@@H](CCC(N)=O)C(=O)N[C@@H](CCCNC(=N)N)C(N)=O [eIFTerminator1] (H-KKRYSREFLLGFGGSGMTVEEMDSWIKSWDQR-NH2)

- Kd (His-eIF4E [1]): 67.5 ± 7.4 nM
Molecule: CC[C@H](C)[C@H](NC(=O)[C@H](Cc1c[nH]c2ccccc12)NC(=O)[C@H](CO)NC(=O)[C@H](CC(=O)O)NC(=O)[C@H](CCSC)NC(=O)[C@H](CCC(=O)O)NC(=O)[C@H](CCC(=O)O)NC(=O)[C@@H](NC(=O)[C@@H](NC(=O)[C@@H](N)CCSC)[C@@H](C)O)C(C)C)C(=O)N[C@@H](CCCCN)C(=O)N[C@@H](CO)C(=O)N[C@@H](Cc1c[nH]c2ccccc12)C(=O)N[C@@H](CC(=O)O)C(=O)N[C@@H](CCC(N)=O)C(=O)N[C@@H](CCCNC(=N)N)C(=O)NCC(=O)NCC(=O)N[C@@H](CO)C(=O)NCC(=O)N[C@@H](CCCCN)C(=O)N[C@@H](CCCCN)C(=O)N[C@@H](CCCNC(=N)N)C(=O)N[C@@H](Cc1ccc(O)cc1)C(=O)N[C@@H](CO)C(=O)N[C@@H](CCCNC(=N)N)C(=O)N[C@@H](CCC(=O)O)C(=O)N[C@@H](Cc1ccccc1)C(=O)N[C@@H](CC(C)C)C(=O)N[C@@H](CC(C)C)C(=O)NCC(=O)N[C@@H](Cc1ccccc1)C(N)=O [eIFTerminator2] (H-MTVEEMDSWIKSWDQRGGSGKKRYSREFLLGF-NH2)

- Kd (His-eIF4E [1]): 39.5 ± 3.4 nM
Molecule: CC[C@H](C)[C@H](NC(=O)[C@H](Cc1c[nH]c2ccccc12)NC(=O)[C@H](CO)NC(=O)[C@H](CC(=O)O)NC(=O)[C@H](CCSC)NC(=O)[C@H](CCC(=O)O)NC(=O)[C@H](CCC(=O)O)NC(=O)[C@@H](NC(=O)[C@@H](NC(=O)[C@H](CCSC)NC(=O)CNC(=O)[C@H](CO)NC(=O)CNC(=O)CNC(=O)[C@H](CO)NC(=O)CNC(=O)CNC(=O)[C@H](CO)NC(=O)CNC(=O)CNC(=O)[C@H](Cc1ccccc1)NC(=O)CNC(=O)[C@H](CC(C)C)NC(=O)[C@H](CC(C)C)NC(=O)[C@H](Cc1ccccc1)NC(=O)[C@H](CCC(=O)O)NC(=O)[C@H](CCCNC(=N)N)NC(=O)[C@H](CO)NC(=O)[C@H](Cc1ccc(O)cc1)NC(=O)[C@H](CCCNC(=N)N)NC(=O)[C@H](CCCCN)NC(=O)[C@@H](N)CCCCN)[C@@H](C)O)C(C)C)C(=O)N[C@@H](CCCCN)C(=O)N[C@@H](CO)C(=O)N[C@@H](Cc1c[nH]c2ccccc12)C(=O)N[C@@H](CC(=O)O)C(=O)N[C@@H](CCC(N)=O)C(=O)N[C@@H](CCCNC(=N)N)C(N)=O [eIFTerminator3] (H-KKRYSREFLLGFGGSGGSGGSGMTVEEMDSWIKSWDQR-NH2)

- Kd (His-eIF4E [1]): 60.6 ± 8.5 nM
Molecule: CC[C@H](C)[C@H](NC(=O)[C@H](Cc1c[nH]c2ccccc12)NC(=O)[C@H](CO)NC(=O)[C@H](CC(=O)O)NC(=O)[C@H](CCSC)NC(=O)[C@H](CCC(=O)O)NC(=O)[C@H](CCC(=O)O)NC(=O)[C@@H](NC(=O)[C@@H](NC(=O)[C@@H](N)CCSC)[C@@H](C)O)C(C)C)C(=O)N[C@@H](CCCCN)C(=O)N[C@@H](CO)C(=O)N[C@@H](Cc1c[nH]c2ccccc12)C(=O)N[C@@H](CC(=O)O)C(=O)N[C@@H](CCC(N)=O)C(=O)N[C@@H](CCCNC(=N)N)C(=O)NCC(=O)NCC(=O)N[C@@H](CO)C(=O)NCC(=O)NCC(=O)N[C@@H](CO)C(=O)NCC(=O)NCC(=O)N[C@@H](CO)C(=O)NCC(=O)N[C@@H](CCCCN)C(=O)N[C@@H](CCCCN)C(=O)N[C@@H](CCCNC(=N)N)C(=O)N[C@@H](Cc1ccc(O)cc1)C(=O)N[C@@H](CO)C(=O)N[C@@H](CCCNC(=N)N)C(=O)N[C@@H](CCC(=O)O)C(=O)N[C@@H](Cc1ccccc1)C(=O)N[C@@H](CC(C)C)C(=O)N[C@@H](CC(C)C)C(=O)NCC(=O)N[C@@H](Cc1ccccc1)C(N)=O [eIFTerminator4] (H-MTVEEMDSWIKSWDQRGGSGGSGGSGKKRYSREFLLGF-NH2)

- Kd (His-eIF4E [2]): 77.8 nM
B1: eIFTerminator1-CBL binary complex (complex)
chain 1: KKRYSREFLLGFGGSGMTVEEMDSWIKSWDQM
chain 2: PPGTVDKKMVEKCWKLMDKVVRLCQNPKLALKNSPPYILDLLPDTYQHLRTILSRYEGKMETLGENEYFRVFMENLMKKTKQTISLFKEGKERMYEENSQPRRNLTKLSLIFSHMLAELKGIFPSGLFQGDTFRITKADAAEFWRKAFGEKTIVPWKSFRQALHEVHPISSGLEAMALKSTIDLTCNDYISVFEFDIFTRLFQPWSSLLRNWNSLAVTHPGYMAFLTYDEVKARLQKFIHKPGSYIFRLSCTRLGQWAIGYVTADGNILQTIPHNKPLFQALIDGFREGFYLFPDGRNQNPDLTGLCEPTPQDHIKVTQEQYELYCEMGSTFQLCKICAENDKDVKIEPCGHLMCTSCLTSWQESEGQGCPFCRCEIKGTEPIVVDPFD

- Kd (His-eIF4E [2]): 81.8 nM
B2: eIFTerminator3-CBL binary complex (complex)
chain 1: MTVEEMDSWIKSWDQMGGSGKKRYSREFLLGF
chain 2: B1 chain 2

- Kd (His-eIF4E [2]): 60.7 nM
B3: eIFTerminator2-CBL binary complex (complex)
chain 1: KKRYSREFLLGFGGSGGSGGSGMTVEEMDSWIKSWDQM
chain 2: B1 chain 2

- Kd (His-eIF4E [2]): 43.8 nM
B4: eIFTerminator4-CBL binary complex (complex)
chain 1: MTVEEMDSWIKSWDQMGGSGGSGGSGKKRYSREFLLGF
chain 2: B1 chain 2
